Our source for the IC50 and EC50 values is patent US20120010205A1, “NOVEL QUINOLINE ESTERS USEFUL FOR TREATING SKIN DISORDERS” (Wyeth LLC, priority 2010, published 2012).

The target of one experiment is T1, human LXRβ (Homo sapiens, UniProt P55055).
T1 construct: made in house; host or cells: E. coli
T1 sequence (P55055 1-460): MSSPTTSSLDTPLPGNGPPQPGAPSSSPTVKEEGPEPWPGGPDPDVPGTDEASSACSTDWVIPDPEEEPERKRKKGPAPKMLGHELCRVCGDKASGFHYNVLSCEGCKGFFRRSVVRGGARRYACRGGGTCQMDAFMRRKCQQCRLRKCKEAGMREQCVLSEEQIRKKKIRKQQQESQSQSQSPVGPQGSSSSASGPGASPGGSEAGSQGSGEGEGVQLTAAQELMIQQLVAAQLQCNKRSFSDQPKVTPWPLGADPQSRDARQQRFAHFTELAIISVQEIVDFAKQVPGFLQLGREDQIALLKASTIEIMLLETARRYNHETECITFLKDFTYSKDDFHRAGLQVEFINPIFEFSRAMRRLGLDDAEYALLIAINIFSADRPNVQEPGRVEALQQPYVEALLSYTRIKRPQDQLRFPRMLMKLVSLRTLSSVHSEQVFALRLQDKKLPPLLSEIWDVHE
The experiment can be described thus: Ligand-binding test procedure for human LXRβ (3H T0901317 tracer, flash plates). The conditions noted are these: read-out: hLXRb binding IC50. The procedure: LIGAND-BINDING TEST PROCEDURE FOR HUMAN LXRβ.
Buffer: 100 mM KCl, 100 mM TRIS (pH 7.4 at +4° C.), 8.6% glycerol, 0.1 mM PMSF*, 2 mM MTG*, 0.2% CHAPS (* not used in wash buffer)
Receptor source: E. coli extracted from cells expressing biotinylated hLXRβ. Extract was made in a similar buffer as above, but with 50 mM TRIS.
Washed streptavidin and coated flash plates with wash buffer. Diluted receptor extract to give Bmax˜4000 cpm and add to the wells. Wrapped the plates in aluminum foil and stored them at +4° C. overnight.
Made a dilution series in DMSO of the test ligands. Made a 5 nM solution of the radioactive tracer in buffer. Mixed 250 μL diluted tracer with 5 μL of the test ligand from each concentration of the dilution series. Washed the receptor-coated flash plates. Added 200 μL per well of the ligand/radiolabel mixture to the receptor-coated flash plates. Wrapped the plates in aluminum foil and incubate at +4° C. over night.
Aspirated wells, and washed the flashed plates. Sealed the plate. Measured the remaining radioactivity in the plate.

Experiment [1] deals with ABCG1. The experiment can be described thus: Gene regulation by LXR: ABCG1, KERTr (serum-free). It is filed as cell-based.
The test system of experiment [2] is ABCG1. The experiment can be described thus: Gene regulation by LXR: ABCG1, human foreskin fibroblasts (serum-free). The format is cell-based. The conditions noted are these: Fibroblast.
For another experiment, the target named is T2, hLXRa (Homo sapiens, UniProt Q13133).
T2 sequence (Q13133 1-447): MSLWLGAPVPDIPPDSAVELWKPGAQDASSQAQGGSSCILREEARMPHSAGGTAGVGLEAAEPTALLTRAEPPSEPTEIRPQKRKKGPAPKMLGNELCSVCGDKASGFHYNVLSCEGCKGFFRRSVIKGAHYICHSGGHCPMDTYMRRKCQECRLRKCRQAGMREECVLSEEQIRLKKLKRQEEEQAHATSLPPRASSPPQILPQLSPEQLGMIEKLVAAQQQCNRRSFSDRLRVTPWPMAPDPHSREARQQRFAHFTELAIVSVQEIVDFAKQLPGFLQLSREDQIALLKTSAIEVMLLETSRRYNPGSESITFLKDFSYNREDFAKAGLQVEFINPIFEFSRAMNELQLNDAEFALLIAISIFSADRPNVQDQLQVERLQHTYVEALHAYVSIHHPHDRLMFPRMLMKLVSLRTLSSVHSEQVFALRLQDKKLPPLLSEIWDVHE
Briefly: hLXRa binding.

On to `CCS(=O)(=O)c1cccc(C(=O)Oc2cccc(-c3c(C(C)C)cnc4c(Cl)cccc34)c2)c1` [Example 1, 3-(8-chloro-3-isopromilquinolin-4-yl)phenyl 3-(ethylsulfonyl)benzoate], for which the IC50 is 3.7 nM at human LXRβ and 16.2 nM on hLXRa. The EC50 is 0.76 nM in the experiment with ABCG1 [1] and 59 nM in the experiment on ABCG1 [2].

For the molecule `Cc1ccc(S(C)(=O)=O)cc1C(=O)Oc1cccc(-c2c(C(C)C)cnc3c(Cl)cccc23)c1` [Example 2, 3-(8-chloro-3-isopropyiquinolin-4-yl)phenyl 2-methyl-5-(methylsulfonyl)benzoate], the IC50 came out at 3.7 nM on human LXRβ and 11.7 nM at hLXRa. The results for the EC50 in the experiment on ABCG1 [1] and with ABCG1 [2] were 1.46 nM and 33 nM, respectively.

Turning to `CC(C)c1cnc2c(Cl)cccc2c1-c1cccc(OC(=O)c2ccc(S(C)(=O)=O)cc2)c1` [Example 3, 3-(8-chloro-3-isopropylquinolin-4-yl)phenyl 4-(methylsulfonyl)benzoate], the IC50 turned out to be 17 nM on human LXRβ and 57 nM at hLXRa. Moreover, the figures for the EC50 in the experiment on ABCG1 [1] and in the experiment with ABCG1 [2] were 1.18 nM and 45 nM, respectively.

On to `CC(C)c1cnc2c(Cl)cccc2c1-c1cccc(OC(=O)c2ccccc2S(C)(=O)=O)c1` [Example 4, 3-(8-chloro-3-isopropylquinolin-4-yl)phenyl 2-(methylsulfonyl)benzoate], for which the IC50 on human LXRβ and at hLXRa was above 1000 nM each time.

`Cc1ccc(S(=O)(=O)N(C)C)cc1C(=O)Oc1cccc(-c2c(C(C)C)cnc3c(Cl)cccc23)c1` [Example 5]: the 50% inhibitory concentration (IC50) at human LXRβ was found to be 25 nM; on hLXRa it was 53 nM. The EC50 is 1.62 nM in the experiment on ABCG1 [1] and 50 nM in the experiment on ABCG1 [2].

`CCS(=O)(=O)c1cccc(C(=O)Oc2cccc(-c3c(C(C)C)cnc4c(C(F)(F)F)cccc34)c2)c1` [Example 6, 3-[3-isopropyl-8-(trifluoromethyl)quinolin-4-yl]phenyl-3-(ethylsulfonyl)benzoate]: the IC50 at human LXRβ stood at 4 nM; on hLXRa it was 16.3 nM. Moreover, the EC50 in the experiment on ABCG1 [1] was determined as 1.48 nM; in the experiment with ABCG1 [2], 37 nM.

As to `Cc1ccc(S(C)(=O)=O)cc1C(=O)Oc1cccc(-c2c(C(C)C)cnc3c(C(F)(F)F)cccc23)c1` [Example 7, 3-[3-isopropyl-8-(trifluoromethyl)quinolin-4-yl]phenyl-2-methyl-5-(methylsulfonyl)benzoate], the IC50 worked out at 3 nM on human LXRβ and 9.2 nM on hLXRa. The EC50 came out at 3.34 nM with ABCG1 [1] and 23 nM with ABCG1 [2].

For `CC(C)c1cnc2c(C(F)(F)F)cccc2c1-c1cccc(OC(=O)c2ccc(S(C)(=O)=O)cc2)c1` [Example 8, 3-[3-isopropyl-8-(trifluoromethyl)quinolin-4-yl]phenyl 4-(methylsulfonyl)benzoate], the IC50 worked out at 12.5 nM at human LXRβ and 54 nM on hLXRa. For the same molecule, the figures for the EC50 with ABCG1 [1] and in the experiment on ABCG1 [2] were 1.9 nM and 38 nM, respectively.

As for `CC(C)c1cnc2c(C(F)(F)F)cccc2c1-c1cccc(OC(=O)c2ccccc2S(C)(=O)=O)c1` [Example 9, 3-[3-isopropyl-8-(trifluoromethyl)quinolin-4-yl]phenyl 2-(methylsulfonyl)benzoate], the IC50 at human LXRβ turned out to be 112 nM; at hLXRa, 256 nM.

For the molecule `Cc1ccc(S(=O)(=O)N(C)C)cc1C(=O)Oc1cccc(-c2c(C(C)C)cnc3c(C(F)(F)F)cccc23)c1` [Example 10], the IC50 at human LXRβ turned out to be 24 nM; at hLXRa, 64 nM. The EC50 with ABCG1 [1] was 0.53 nM; in the experiment with ABCG1 [2] it was 58 nM.

On to `Cc1cnc2c(C(F)(F)F)cccc2c1-c1cccc(OC(=O)c2cccc(S(C)(=O)=O)c2)c1` [Example 11], for which the IC50 was 3.5 nM on human LXRβ and 13.3 nM at hLXRa. The EC50 is 73 nM in the experiment on ABCG1 [1] and 105 nM in the experiment with ABCG1 [2].

Consider `Cc1cnc2c(C(F)(F)F)cccc2c1-c1cccc(C(=O)Oc2cccc(S(C)(=O)=O)c2)c1` [Example 12], for which the results for the IC50 on human LXRβ and at hLXRa were 154 nM and 544 nM, respectively.

With `CC(C)c1cnc2c(Cl)cccc2c1-c1cccc(OC(=O)c2cc(S(C)(=O)=O)ccc2Cl)c1` [Example 13, 3-(8-chloro-3-isopropylquinolin-4-yl)phenyl 2-chloro-5-(methylsulfonyl)benzoate], the IC50 at human LXRβ turned out to be 3.4 nM; on hLXRa, 9 nM.

For `CC(C)c1cnc2c(C(F)(F)F)cccc2c1-c1cccc(OC(=O)c2cc(S(C)(=O)=O)ccc2Cl)c1` [Example 14, 3-[3-isopropyl-8-(trifluoromethyl)quinolin-4-yl]phenyl-2-chloro-5-(methylsulfonyl)benzoate], the IC50 worked out at 4.1 nM at human LXRβ and 17 nM at hLXRa.

For the molecule `CC(C)c1cnc2c(C(F)(F)F)cccc2c1-c1cccc(OC(=O)c2cccc(S(C)(=O)=O)c2)c1` [Example 15, 3-[3-isopropyl-8-(trifluoromethyl)quinolin-4-yl]phenyl 3-(methylsulfonyl)benzoate], the IC50 was found to be 1.7 nM at human LXRβ and 3.5 nM at hLXRa. Also, the EC50 in the experiment with ABCG1 [1] was found to be 5.2 nM; in the experiment with ABCG1 [2] it was 41 nM.

For the molecule `CC(C)c1cnc2c(Cl)cccc2c1-c1cccc(OC(=O)c2cccc(S(C)(=O)=O)c2)c1` [Example 16, 3-[8-chloro-3-(1-methylethyl)quinolin-4-yl]phenyl 3-(methylsulfonyl)benzoate], the IC50 was determined as 2.2 nM on human LXRβ and 4.4 nM at hLXRa.

As to `Cc1cnc2c(Cl)cccc2c1-c1cccc(OC(=O)c2cccc(S(C)(=O)=O)c2)c1` [Example 17, 3-(8-chloro-3-methylquinolin-4-yl)phenyl 3-(methylsulfonyl) benzoate], the values for the IC50 at human LXRβ and at hLXRa were 3.7 nM and 17 nM, respectively.

For `CS(=O)(=O)c1cccc(C(=O)Oc2ccc(Cl)c(-c3ccnc4c(C(F)(F)F)cccc34)c2)c1` [Example 18, 4-chloro-3-[8-(trifluoromethyl)quinolin-4-yl]phenyl-3-(methylsulfonyl)benzoate], the IC50 came to 13.8 nM at human LXRβ and 122 nM at hLXRa.

Take `CCc1cnc2c(C(F)(F)F)cccc2c1-c1cccc(OC(=O)c2cccc(S(C)(=O)=O)c2)c1` [Example 19, 3-[3-ethyl-8-(trifluoromethyl)quinolin-4-yl]phenyl 3-(methylsulfonyl)benzoate]: the IC50 on human LXRβ amounted to 2.2 nM; on hLXRa, 4 nM. Also, the EC50 in the experiment with ABCG1 [1] was 12.5 nM; in the experiment with ABCG1 [2] it was 36 nM.

Consider `CCCc1cnc2c(C(F)(F)F)cccc2c1-c1cccc(OC(=O)c2cccc(S(C)(=O)=O)c2)c1` [Example 20, 3-[3-propyl-8-(trifluoromethyl)quinolin-4-yl]phenyl 3-(methylsulfonyl)benzoate], for which the IC50 on human LXRβ turned out to be 2 nM; on hLXRa it was 2.9 nM. For the same molecule, the EC50 with ABCG1 [1] came out at 4.49 nM; with ABCG1 [2], 11 nM.

Regarding `CS(=O)(=O)c1cccc(C(=O)Oc2cccc(-c3ccnc4c(C(F)(F)F)cccc34)c2)c1` [Example 21, 3-[8-(trifluoromethyl)quinolin-4-yl]phenyl 3-(methylsulfonyl)benzoate], the values for the IC50 at human LXRβ and at hLXRa were 20 nM and 120 nM, respectively. In addition, the results for the EC50 in the experiment with ABCG1 [1] and in the experiment with ABCG1 [2] were 384 nM and 634 nM, respectively.

Turning to `CS(=O)(=O)c1cccc(C(=O)Oc2cccc(-c3c(C#N)cnc4c(C(F)(F)F)cccc34)c2)c1` [Example 24, 3-[3-cyano-8-(trifluoromethyl)quinolin-4-yl]phenyl 3-(methylsulfonyl)benzoate], the IC50 on human LXRβ stood at 33 nM; on hLXRa it was 90 nM.
